In experiment [1] the test system is pERK after EGF stimulation in DLD1 cells. The experiment can be described thus: ERK phosphorylation assay (alphascreen pERK). The format is cell-based. The following applies: Homo sapiens, DLD-1, 2 h compound, 200 ng/ml hEGF for 5 minutes, read-out: ERK phosphorylation inhibition IC50. As for the experimental part:
Compounds were tested for their ability to inhibit pERK after EGF stimulation in DLD1 cells. Cells were seeded at 0.2 million cells per well in 96 well cell binding tissue culture plate in 100 μL complete media and were allowed to settle overnight (16 to 20 h). On the following day, cells were treated with various concentrations of test compounds for 2 h followed by stimulation with 200 ng/ml hEGF (diluted in PBS) for 5 minutes. Cells were then washed once with PBS and lysed in freshly prepared lysis buffer (provided with alphascreen surefire ERK1/2 p-T202/Y204 assay kit, cat no: TGRESB10K, Perkin Elmer). Lysis was carried out in plate shaker for 10-15 mins. Lysate was transferred to […] white opti-plate (Perkin Elmer) and alphascreen for pERK was carried out as per manufacturer's instructions. Plate was read after 2 h incubation in plate shaker at […] 300 RPM, 25-28° C. The difference between the unstimulated and stimulated Vehicle control is considered as 100% ERK phosphorylation, and % inhibition of compounds is calculated accordingly.
In general terms: Bead proximity is the source of the signal in Alpha formats.

Experiment [2] deals with T1, nucleotide exchange on hKRASG12C mediated by hSOS1 (Homo sapiens, UniProt Q07889).
T1 construct: HIS-hSOS1, 564-1049aa mediated GTP loading onto GST-hKRASG12C; His (N); made in house
T1 sequence (Q07889 564-1049): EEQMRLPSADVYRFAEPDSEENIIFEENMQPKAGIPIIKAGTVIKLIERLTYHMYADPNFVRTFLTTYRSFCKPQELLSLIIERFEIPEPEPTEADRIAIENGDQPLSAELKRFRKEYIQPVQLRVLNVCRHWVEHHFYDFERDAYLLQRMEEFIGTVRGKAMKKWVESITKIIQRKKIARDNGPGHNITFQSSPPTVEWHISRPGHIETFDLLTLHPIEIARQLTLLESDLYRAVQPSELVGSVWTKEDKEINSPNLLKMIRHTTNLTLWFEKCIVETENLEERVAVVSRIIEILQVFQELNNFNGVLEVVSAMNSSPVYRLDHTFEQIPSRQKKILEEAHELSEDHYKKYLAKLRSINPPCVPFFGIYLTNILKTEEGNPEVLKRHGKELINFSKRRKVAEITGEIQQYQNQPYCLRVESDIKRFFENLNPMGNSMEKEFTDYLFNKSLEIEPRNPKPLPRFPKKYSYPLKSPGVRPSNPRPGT
The experiment can be described thus: Guanine nucleotide exchange assay (GNEA, HTRF). It is filed as biochemical. The following applies: HIS-hSOS1 564-1049aa mediated GTP loading onto GST-hKRASG12C 1-169aa, read-out: Guanine nucleotide exchange inhibition IC50. As for the experimental part: Example-154: Guanine nucleotide exchange assay (GNEA) GNEA assay was conducted to evaluate the effects of compounds on the nucleotide exchange on hKRASG12C mediated by hSOS1. Inhibitory effect of compounds on HIS-hSOS1, 564-1049aa mediated GTP loading onto GST-hKRASG12C, 1-169aa both expressed and purified in-house was assessed using HTRF detection technology in biochemical assay. Compounds were pre-incubated with hSOS1 working solution containing 10-50 nM hSOS1 and 200 nM EDA-GTP-DY-647P1 (Custom manufactured, Jena Biosciences) per well of a 384 well plate (Perkin Elmer, Cat #6007290) for 10 min at 20° C. in the assay buffer containing 10 mM HEPES, pH 7.4, 150 mM NaCl, 5 mM MgCl2, 1 mM DTT, 0.05% BSA fraction V and 0.0025% Igepal. Reaction was initiated by adding working solution of hKRASG12C containing 25-125 nM hKRASG12C and MAb Anti-GST-Tb (#61GSTTLA, Cisbio BioAssays) in assay buffer. Total assay volume was 15 μL. Reaction was continued for 30-60 min at 20° C. HTRF signal was recorded in PHERAStar microplate reader. Ratio of signal obtained at 665 nm and 620 nm was used to compute the percent inhibition of compound as follows.
In general terms: TR-FRET usually uses a lanthanide donor and a delayed reading to cut background.

Experiment [3] addresses T2, protein-protein interaction between hSOS1 and hKRASG12C (Homo sapiens, UniProt Q07889).
T2 construct: GST-hSOS1, 564-1049aa expressed and purified in-house
T2 sequence (Q07889 564-1049): T1 sequence (Q07889 564-1049)
In words: KRAS-SOS1 interaction assay (HTRF). It is filed as binding. The following applies: GST-hSOS1 564-1049aa, HIS-hKRASG12C, read-out: KRAS-SOS1 Interaction inhibition IC50. The method, then:
Interaction assay was conducted to evaluate the ability of the compounds to disrupt the protein-protein interactions between hSOS1 and hKRASG12C. Inhibitory effect of compounds on GST-hSOS1, 564-1049aa expressed and purified in-house and HIS-hKRASG12C (R06-32DH, SignalChem) interaction was assessed using HTRF detection technology in biochemical assay. Compounds were pre-incubated with 10-50 nM working solution of hSOS1 per well of a 384 well plate (Perkin Elmer, Cat #6007290) for 10 min at 20° C. in the assay buffer containing 5 mM HEPES, pH 7.4, 150 mM NaCl, 10 mM EDTA, 1 mM DTT, 0.05% BSA fraction V and 0.0025% Igepal. Reaction was initiated by adding 100-300 nM working solution of hKRASG12C in assay buffer. Total assay volume was 15 μL. Reaction was continued for 30-60 min at 20° C. Then detection solution containing MAb Anti-GST-d2 (#61GSTDLA, Cisbio BioAssays) and MAb Anti-HIS-Tb (#61HISTLA, Cisbio BioAssays), all prepared in HTRF detection buffer (#61DB10RDF, Cisbio BioAssays) was added and further incubated for 30-60 min at 20° C. HTRF signal was recorded in PHERAStar microplate reader. Ratio of signal obtained at 665 nm and 620 nm was used to compute the percent inhibition of compound utilizing the following formula: […]

Turning to `Cc1nc(N[C@H](C)c2cccc(C(F)(F)C(C)(C)O)c2F)c2cc3c(cc2n1)n(C)c(=O)n3C` [Compound 109, (R)-8-((1-(3-(1,1-difluoro-2-hydroxy-2-methylpropyl)-2-fluorophenyl)ethyl)amino)-1,3,6-trimethyl-1,3-dihydro-2H-imidazo[4,5-g]quinazolin-2-one], the concentration for half-maximal inhibition (IC50) in experiment [1] was in the range of 0.001 to 0.2 µM; in experiment [2], 0.001 to 0.03 µM; in experiment [3], 0.001 to 0.01 µM.

As for `CO[C@]1(C)C(=O)N(C)c2cc3c(N[C@H](C)c4cc(N)cc(C(F)(F)F)c4)nc(C)nc3cc21` [Compound 131, (S)-4-(((R)-1-(3-amino-5-(trifluoromethyl)phenyl)ethyl)amino)-8-methoxy-2,6,8-trimethyl-6,8-dihydro-7H-pyrrolo[2,3-g]quinazolin-7-one], the half-inhibitory concentration (IC50) in experiment [1] lay within 0.001 to 0.2 µM; in experiment [2] it was 0.031 to 0.13 µM; in experiment [3] it was 0.011 to 0.025 µM.

Regarding `COCC(C)(O)C(F)(F)c1cccc([C@@H](C)Nc2nc(C)nc3cc4c(cc23)N(C)C(=O)C(C)(C)O4)c1F` (single isomer, unassigned) [Compound 53b], the concentration for half-maximal inhibition (IC50) lay in the range of 0.001 to 0.2 µM in experiment [1], 0.001 to 0.03 µM in experiment [2] and 0.011 to 0.025 µM in experiment [3].

As for `Cc1nc(N[C@H](C)c2cccc(C(F)(F)C(C)(C)O)c2F)c2cc3c(cc2n1)n(C)c(=O)n3C(C)C` [Compound 105, (R)-8-((1-(3-(1,1-difluoro-2-hydroxy-2-methylpropyl)-2-fluorophenyl)ethyl)amino)-1-isopropyl-3,6-dimethyl-1H-imidazo[4,5-g]quinazolin-2(3H)-one], the half-maximal inhibitory concentration (IC50) in experiment [1] is 0.001 to 0.2 µM; in experiment [2] it was 0.001 to 0.03 µM; in experiment [3], 0.001 to 0.01 µM.

For `CCN1C(=O)C(C)(C)c2cc3c(N[C@H](C)c4cccc(C(F)(F)CO)c4F)nc(C)nc3cc21` [Compound 88, (R)-4-((1-(3-(1,1-difluoro-2-hydroxyethyl)-2-fluorophenyl)ethyl)amino)-8-ethyl-2,6,6-trimethyl-6,8-dihydro-7H-pyrrolo[3,2-g]quinazolin-7-one], the IC50 in experiment [1] was 0.001 to 0.2 µM; in experiment [2], 0.001 to 0.03 µM; in experiment [3] it was 0.001 to 0.01 µM.

Turning to `Cc1nc(N[C@H](C)c2cccc(C(F)(F)CO)c2F)c2cc3c(cc2n1)C(C)(C)C(=O)N3C` [Compound 72, (R)-4-((1-(3-(1,1-difluoro-2-hydroxyethyl)-2-fluorophenyl)ethyl)amino)-2,6,8,8-tetramethyl-6,8-dihydro-7H-pyrrolo[2,3-g]quinazolin-7-one], the 50% inhibitory concentration (IC50) was in the range of 0.001 to 0.03 µM in experiment [2] and 0.001 to 0.01 µM in experiment [3].

`Cc1nc(N[C@H](C)c2cc(N)cc(C(F)(F)F)c2)c2cc3c(cc2n1)OCCN3C` [Compound 10, (R)—N-(1-(3-amino-5-(trifluoromethyl)phenyl)ethyl)-2,6-dimethyl-7,8-dihydro-6H-[1,4]oxazino[3,2-g]quinazolin-4-amine]: the half-maximal inhibitory concentration (IC50) in experiment [2] lay in the range of 0.031 to 0.13 µM; in experiment [3] it was 0.001 to 0.01 µM.

Take `Cc1nc(N[C@H](C)c2cccc(C(F)(F)C(C)(C)O)c2F)c2cc3c(cc2n1)CC(=O)N3C` [Compound 113, (R)-4-((1-(3-(1,1-difluoro-2-hydroxy-2-methylpropyl)-2-fluorophenyl)ethyl)amino)-2,6-dimethyl-6,8-dihydro-7H-pyrrolo[2,3-g]quinazolin-7-one]: the IC50 in experiment [2] lay within 0.031 to 0.13 µM; in experiment [3], 0.001 to 0.01 µM.

For the molecule `Cc1nc(N[C@H](C)c2cccc(C(F)(F)C(C)(C)O)c2F)c2cc3c(cc2n1)C1(CC1)C(=O)N3C` [Compound 79, (R)-4′-((1-(3-(1,1-difluoro-2-hydroxy-2-methylpropyl)-2-fluorophenyl)ethyl)amino)-2′,6′-dimethylspiro[cyclopropane-1,8′-pyrrolo[2,3-g]quinazolin]-7′(6′H)-one], the IC50 in experiment [1] lay within 0.001 to 0.2 µM.

For `Cc1nc(N[C@H](C)c2cccc(C(F)(F)C(C)(C)O)c2F)c2cc3c(cc2n1)O[C@@H](C(C)C)C(=O)N3C` (single isomer, unassigned) [Compound 32a], the IC50 in experiment [1] lay within 0.001 to 0.2 µM.

With `COC1(C)C(=O)N(C)c2cc3nc(C)nc(N[C@H](C)c4cccc(C(F)(F)C(C)(C)O)c4F)c3cc21` (single isomer, unassigned) [Compound 96b], the IC50 in experiment [1] is 0.001 to 0.2 µM.

As for `Cc1nc(NC(C)c2cccc(C(O)(CO)C(F)(F)F)c2F)c2cc3c(cc2n1)OC(C)(C)C(=O)N3C` (racemic) [Compound 22, 4-(((R&S)-1-(2-Fluoro-3-((R&S)-1,1,1-trifluoro-2,3-dihydroxypropan-2-yl)phenyl)ethyl)amino)-2,6,8,8-tetramethyl-6H-[1,4]oxazino[3,2-g]quinazolin-7(8H)-one], the half-maximal inhibitory concentration (IC50) in experiment [1] was in the range of 0.201 to 0.5 µM.

On to `Cc1nc(N[C@H](C)c2cccc(C(F)(F)C(C)(C)O)c2F)c2cc3c(cc2n1)C(=O)N(C)C3(C)C` [Compound 114, (R)-4-((1-(3-(1,1-difluoro-2-hydroxy-2-methylpropyl)-2-fluorophenyl)ethyl)amino)-2,6,6,7-tetramethyl-6,7-dihydro-8H-pyrrolo[3,4-g]quinazolin-8-one], for which the half-maximal inhibitory concentration (IC50) in experiment [1] lay in the range of 0.001 to 0.2 µM.

For the molecule `Cc1nc(N[C@H](C)c2cccc([C@@](O)(CO)C(F)(F)F)c2F)c2cc3c(cc2n1)OC(C)(C)C(=O)N3C` (single isomer, unassigned) [Compound 22b, 4-(((R/S)-1-(2-fluoro-3-((R/S)-1,1,1-trifluoro-2,3-dihydroxypropan-2-yl)phenyl)ethyl)amino)-2,6,8,8-tetramethyl-6H-[1,4]oxazino[3,2-g]quinazolin-7(8H)-one], the IC50 in experiment [1] was 0.201 to 0.5 µM.

With `Cc1nc(N[C@H](C)c2cccc(C(F)(F)C(C)(C)O)c2F)c2cc3c(cc2n1)OC(C)(C)C(N1CCOCC1)=N3` [Compound 26, (R)-1,1-Difluoro-1-(2-fluoro-3-(1-((2,8,8-trimethyl-7-morpholino-8H [1,4]oxazino[3,2-g]quinazolin-4-yl)amino)ethyl)phenyl)-2-methylpropan-2-ol], the IC50 in experiment [1] lay within 0.201 to 0.5 µM.

On to `Cc1nc(NC(C)c2cccc(C(F)(F)F)c2F)c2cc3c(cc2n1)C(C)(C)C(=O)N3C` (single isomer, unassigned) [Compound 134, (R/S)-4-((1-(2-fluoro-3-(trifluoromethyl)phenyl)ethyl)amino)-2,6,8,8-tetramethyl-6,8-dihydro-7H-pyrrolo[2,3-g]quinazolin-7-one], for which the half-inhibitory concentration (IC50) in experiment [1] was in the range of 0.201 to 0.5 µM.

For orientation: IC50 means the concentration that gives 50% inhibition.

The values are drawn from patent US20260209247A1, “Substituted Tricyclic Compounds” (Lupin Limited, priority 2019, published 2026).
